# Article PMC5530730, “^11C-Labeling of Aryl Ketones as Candidate Histamine Subtype-3 Receptor PET Radioligands through Pd(0)-Mediated ^11C-Carbonylative Coupling” (Molecules : A Journal of Synthetic Chemistry and Natural …, 2017)
# Like-named read-outs stand apart in the source and are kept apart here.
# Experiments:
# H1R = H1R (Homo sapiens, UniProt P35367); assay: Competitive binding, displacement of [3H]pyrilamine, PDSP; details: human recombinant receptors expressed in HEK293T cells, read-out: Affinity (Ki, nM) H1
# H1R, sequence (P35367 whole entry): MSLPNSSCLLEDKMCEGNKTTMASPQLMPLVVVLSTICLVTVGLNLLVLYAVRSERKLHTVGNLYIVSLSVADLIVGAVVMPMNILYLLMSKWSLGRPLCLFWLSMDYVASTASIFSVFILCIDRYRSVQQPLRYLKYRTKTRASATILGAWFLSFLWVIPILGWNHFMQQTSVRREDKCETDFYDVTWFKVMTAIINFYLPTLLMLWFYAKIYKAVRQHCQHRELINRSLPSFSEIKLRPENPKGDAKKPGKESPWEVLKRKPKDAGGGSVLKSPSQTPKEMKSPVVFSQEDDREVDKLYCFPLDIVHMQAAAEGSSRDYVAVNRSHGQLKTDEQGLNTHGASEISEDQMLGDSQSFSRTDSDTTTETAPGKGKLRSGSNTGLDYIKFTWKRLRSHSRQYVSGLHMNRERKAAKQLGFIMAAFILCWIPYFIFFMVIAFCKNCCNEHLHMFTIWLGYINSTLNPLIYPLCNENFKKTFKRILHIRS
# H2R = H2R (Homo sapiens, UniProt P25021); assay: Competitive binding, displacement of [3H]tiotidine, PDSP; details: human recombinant receptors expressed in HEK293T cells, read-out: Affinity (Ki, nM) H2
# H2R, sequence (P25021 whole entry): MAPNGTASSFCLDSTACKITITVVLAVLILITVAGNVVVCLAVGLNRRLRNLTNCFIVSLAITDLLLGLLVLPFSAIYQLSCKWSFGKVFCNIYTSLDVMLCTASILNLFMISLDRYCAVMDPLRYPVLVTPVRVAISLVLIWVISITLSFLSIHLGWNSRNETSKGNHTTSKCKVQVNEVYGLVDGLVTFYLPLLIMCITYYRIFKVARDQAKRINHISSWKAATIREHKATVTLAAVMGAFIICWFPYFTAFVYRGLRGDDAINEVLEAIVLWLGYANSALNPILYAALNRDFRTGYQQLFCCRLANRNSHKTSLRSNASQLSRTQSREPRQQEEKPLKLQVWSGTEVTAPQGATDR
# H3 receptors = H3 receptors (Cavia porcellus, UniProt Q9JI35); assay: Competitive binding, displacement of [3H]α-methylhistamine, PDSP; parameters: species or system guinea pig
# H3 receptors, sequence (Q9JI35 whole entry): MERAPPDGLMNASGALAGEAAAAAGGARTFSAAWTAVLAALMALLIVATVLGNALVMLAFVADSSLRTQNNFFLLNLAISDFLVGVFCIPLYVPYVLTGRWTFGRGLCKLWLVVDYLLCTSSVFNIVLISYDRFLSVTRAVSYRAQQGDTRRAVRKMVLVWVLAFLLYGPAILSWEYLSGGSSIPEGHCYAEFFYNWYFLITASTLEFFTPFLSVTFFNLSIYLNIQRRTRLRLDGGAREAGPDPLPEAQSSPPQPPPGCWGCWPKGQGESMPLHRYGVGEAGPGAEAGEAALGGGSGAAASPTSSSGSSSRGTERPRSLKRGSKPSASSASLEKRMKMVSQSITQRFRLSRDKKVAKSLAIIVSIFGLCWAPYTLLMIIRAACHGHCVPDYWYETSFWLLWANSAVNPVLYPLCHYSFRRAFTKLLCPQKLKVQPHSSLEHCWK
# [1] = biological target: cloned human H3 receptors; parameters: method as in PMID 15634000; details: [3H]α-methylhistamine; membranes of C6 cells expressing cloned human H3 receptors; read-out: Affinity (Ki, nM) H3 (lit); cited from earlier work
# [2] = [3H]α-methylhistamine, guinea pig cells expressing H3 receptors, NIMH PDSP, read-out: Affinity (Ki, nM) H3
Ki (H1R) [nM],Ki (H2R) [nM],Ki (H3 receptors; [2]) [nM],Structure (SMILES),Ki [1] [nM],Ki (H3 receptors) [nM]
1030,706,2.1,C[C@@H]1CCCN1CCc1cc2cc(C(=O)c3ccc([N+](=O)[O-])cc3)ccc2o1 [Ligand 1],,
> 10000,1370,4.9,C[C@@H]1CCCN1CCc1cc2cc(C(=O)c3cccc(F)c3)ccc2o1 [Ligand 3],0.1,
> 10000,630,2.9,"C[C@@H]1CCCN1CCc1cc2cc(C(=O)c3cc(F)cc(F)c3)ccc2o1 [Ligand 4, (R)-(3,5-Difluorophenyl)(2-(2-(2-methylpyrrolidin-1-yl)ethyl)benzofuran-5-yl)methanone]",0.09,

Structure (SMILES),Ki (H1R) [nM],Ki (H2R) [nM],Ki (H3 receptors; [2]) [nM],Ki [1] [nM],Ki (H3 receptors) [nM]
C[C@@H]1CCCN1CCc1cc2cc(C(=O)c3ccc(F)cc3)ccc2o1 [Ligand 2],7050,923,,,4.2
